{
  "source": "patent US7947312B2",
  "about": "“Method of preparation and composition of a water soluble extract of the bioactive component of the plant species Uncaria for enhancing immune, anti-inflammatory, anti-tumor and DNA repair processes of warm blooded animals” (priority 2002, dated 2011)",
  "key": {"DXR-induced leucopenia": {"system": "DXR-induced leucopenia", "assay": "Doxorubicin (DXR)-induced leucopenia rat model, recovery of peripheral WBC", "assay_type": "in vivo", "settings": "200 mg/kg gavage, compared to C-MED-100", "description": "In vivo evaluation of the efficacy of quinic acid as an active ingredient isolated from water soluble Cat's Claw extracts. A rat model was used to evaluate if active ingredients isolated from water soluble extracts of Cat's Claw could be shown to be effective in vivo by inducing recovery of peripheral white blood cells (WBC) after doxorubicin (DXR)-induced leucopenia. […] The rat study experimental design used to compare quinic acid and C-MED-100® is outlined in detail (diagrammatic form) below.\n50 female W/Fu rats, weighing 150-180 g each, were divided into 5 groups of 10 rats per group. Doxorubicin, obtained from Pharmacia and Upjohn, was administered in a 2 mg/kg dose for all rats groups 2-5, IP injection (day 1, 3, 5). Group 3 also received C-MED-100® (Batch No E-40622), administered in a dose of 80 mg/kg, gavage daily from day 6 (24 hours after the third/last treatment of DXR) to the end of experiment (day 21/22). […]\nThe body weight (GM) of each rat was measured before and at the end of the experiment. […] Whole peripheral blood samples were collected into K3-EDTA containing tubes by periorbital puncture and then analyzed for WBC within 1 hour with an automated hematology analyzer (Sysmex, K-1000) Organ weights from major tissues (liver, kidney, lung, heart, spleen) were also collected and used as an indicator of any toxicity."}, "Jurkat T cells": {"system": "Jurkat T cells", "assay": "Jurkat T cell proliferation (data not shown)", "assay_type": "cell-based, human"}, "IκBα": {"system": "IκBα", "assay": "Western blotting of IκBα and phosphorylated IκBα in LPS-stimulated 70Z/3 cells", "assay_type": "cell-based, mouse", "settings": "QA 2 mg/ml or PDTC 100 μM", "description": "FIGS. 5C and 5D illustrate 70Z/3 cells (5×10^6) that were pre-treated with QA (2 mg/ml) or with PDTC (100 μM) as a positive control for two hours and thereafter stimulated with LPS (25 μg/ml) for the indicated time. Cytoplasmic extracts equalized for protein concentration were analyzed by western blotting using IκBα-specific antibodies. One representative experiment out of three (FIG. 5C) and one representative experiment out of two (FIG. 5D) are presented.\nPreparation of cell extracts: The 70Z/3 cells were pretreated with QA (1 or 2 mg/ml) or with PDTC for 2 hours before they were stimulated with LPS for various time points. Whole cell extracts from the 70Z/3 cells (1×10^6) were prepared for analysis of the NF-κB signaling pathway. The cells were washed twice in PBS, resuspended in lysis buffer (75 mM Tris-HCl (pH 8.0), 100 mM NaCl, 5 mM KCl, 3 mM MgCl2, 2% NP-40, 1 mM PMSF and a protease inhibitor cocktail) (Roche Diagnostics Scandinavia AB) and incubated on ice for 10 min. The cell debris was pelleted and the supernatants were stored at −70° C. until Western Blot was performed.\nWestern blotting: Cellular extracts from 70Z/3 cells were separated on a 10% SDS polyacrylamide gel and the proteins were transferred to a nylon membrane. After blocking overnight in 5% dry fat-free milk in TBST, the membrane was incubated for 2 hrs with primary antibodies specific either to IκBα or to phosphorylated IκBα (both from Cell Signaling Technology Inc, Beverly, Mass.). The membranes were thereafter washed three times in TBST, and incubated with HRP-conjugated goat anti-rabbit antibodies (Amersham Pharmacia). The membranes were washed three times and chemoluminescence was detected using the ECL-reagent (Amersham Pharmacia) and x-ray film (CEA AB, Strängnäs, Sweden)."}, "C57BL/6 mice": {"system": "C57BL/6 mice", "assay": "Mice treated via drinking water for 21 days: spleen cells, blood cells, weights", "assay_type": "in vivo, mouse", "description": "Mice were treated with indicated concentrations of QA or C-MED-100® in the drinking water for 21 days, sacrificed and absolute number of spleen cells counted using trypan blue exclusion. The presented data are mean cell numbers±S.D. pooled from five experiments (water, n=21; C-MED-100® 4 mg/ml, n=24; C-MED-100® 8 mg/ml, n=9; QA 1 mg/ml, n=9; QA 2 mg/ml, n=22; QA 4 mg/ml, n=10). Statistically significant differences compared to control mice supplemented with tap water are indicated. […] The data are presented as the mean number of cells/ml±S.D. from five experiments (water, n=21; C-MED-100® 4 mg/ml, n=24; C-MED-100® 8 mg/ml, n=9; QA 1 mg/ml, n=9; QA 2 mg/ml, n=22; QA 4 mg/ml, n=10). Statistically significant differences compared to control mice supplemented with tap water are indicated. Materials and Methods: C57BL/6 females were bought from […], Denmark and used in experiments at an age of 6-10 weeks. The animals were kept in a SPF facility at Lund University, Lund, Sweden. The use of laboratory animals complies with the guidelines of the European Community and was approved of by the local ethical committee. In vivo treatment: Mice were fed with C-MED-100® and QA (Sigma-Aldrich), dissolved in autoclaved tap water at indicated concentrations, for 21 days. The drinking water bottles were changed every third day. The animals were then sacrificed, the spleens removed and blood samples collected. The blood samples were analyzed in a Sysmex KX-21N cytometer (Sysmex Corporation, Kobe, Japan)."}},
  "note": "Counter-ions that a name gives are not always drawn.",
  "data": [
    {"smiles": "O=C(O)[C@]1(O)C[C@@H](O)[C@@H](O)[C@H](O)C1", "note": "[QAA, quinic acid ammonium salt]", "values": [
      {"measurement": "recovery from DXR-induced leucopenia", "setting": "DXR-induced leucopenia", "result": "could induce recovery from DXR-induced leucopenia about as effectively as 80 mg/kg C-MED-100® could"}
    ]},
    {"smiles": "O=C(O)C1(O)CC(O)C(O)C(O)C1", "note": "(stereo not shown) [QA, 1,3,4,5-tetrahydroxy-cyclohexanecarboxylic acid]", "values": [
      {"measurement": "proliferation of Jurkat T cells", "setting": "Jurkat T cells", "result": "did not inhibit proliferation"},
      {"measurement": "phosphorylation of IκBα", "setting": "IκBα", "result": "did not affect the phosphorylation of IκBα"},
      {"measurement": "LPS-induced breakdown of IκBα", "setting": "IκBα; 2 h pretreatment", "result": "inhibited the LPS-induced breakdown of IκBα"},
      {"measurement": "recovery from DXR-induced leucopenia", "setting": "DXR-induced leucopenia", "result": "could induce recovery from DXR-induced leucopenia about as effectively as 80 mg/kg C-MED-100® could"},
      {"measurement": "number of spleen cells", "setting": "C57BL/6 mice; 2 mg/ml in drinking water, 21 days", "result": "significantly increased number of spleen cells"},
      {"measurement": "body weight", "setting": "C57BL/6 mice; 4 mg/ml in drinking water", "result": "significantly reduced"},
      {"measurement": "WBC and blood lymphocytes in peripheral blood", "setting": "C57BL/6 mice; 4 mg/ml in drinking water, vs normal control animals", "result": "this increase was significant"},
      {"measurement": "absolute numbers of lymphocyte subsets CD4+ T cells, CD8+ T cells and B cells in spleen", "setting": "C57BL/6 mice; drinking water 21 days (FIG. 6B)", "result": "this was also the case"},
      {"measurement": "WBC, blood lymphocytes, RBC in peripheral blood", "setting": "C57BL/6 mice; drinking water 21 days, indicated concentrations", "result": "increasing number of WBC and blood lymphocytes"}
    ]}
  ]
}
